Results as given in US20220226299A1 (NIPPON CHEMIPHAR CO., LTD., priority 2019, published 2022).

The molecules below were run against T1, human Cav3.2 channels (Homo sapiens, UniProt O95180) (assay: T-type calcium blocking action: intracellular calcium (Fluo-4 AM fluorescence) in HEK293 cells steadily expressing human Cav3.2 channels). Details: HEK293 cells expressing human Cav3.2; KCl-stimulated calcium influx, Fluo-4 fluorescence; Tables 1 to 3.
T1 construct: human Cav3.2 channel ORF (Open Reading Frame) gene; expressed in transfected cells; host or cells: HEK293 cells (ATCC No. CRL-1573), pcDNA3.1(+) plasmid
Type: cell-based
Method in brief: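 Fluo-4 AM-loaded stable HEK293 cells were preincubated 15 min at RT with compound (0.1% DMSO final) in choline-based buffer (pH 7.3). Gramicidin was added, then KCl-induced calcium influx was read at 485/510 nm for 10 s. Percent block came from peak rise over baseline, and IC50 from log-concentration plots.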

T1 sequence (O95180 whole entry): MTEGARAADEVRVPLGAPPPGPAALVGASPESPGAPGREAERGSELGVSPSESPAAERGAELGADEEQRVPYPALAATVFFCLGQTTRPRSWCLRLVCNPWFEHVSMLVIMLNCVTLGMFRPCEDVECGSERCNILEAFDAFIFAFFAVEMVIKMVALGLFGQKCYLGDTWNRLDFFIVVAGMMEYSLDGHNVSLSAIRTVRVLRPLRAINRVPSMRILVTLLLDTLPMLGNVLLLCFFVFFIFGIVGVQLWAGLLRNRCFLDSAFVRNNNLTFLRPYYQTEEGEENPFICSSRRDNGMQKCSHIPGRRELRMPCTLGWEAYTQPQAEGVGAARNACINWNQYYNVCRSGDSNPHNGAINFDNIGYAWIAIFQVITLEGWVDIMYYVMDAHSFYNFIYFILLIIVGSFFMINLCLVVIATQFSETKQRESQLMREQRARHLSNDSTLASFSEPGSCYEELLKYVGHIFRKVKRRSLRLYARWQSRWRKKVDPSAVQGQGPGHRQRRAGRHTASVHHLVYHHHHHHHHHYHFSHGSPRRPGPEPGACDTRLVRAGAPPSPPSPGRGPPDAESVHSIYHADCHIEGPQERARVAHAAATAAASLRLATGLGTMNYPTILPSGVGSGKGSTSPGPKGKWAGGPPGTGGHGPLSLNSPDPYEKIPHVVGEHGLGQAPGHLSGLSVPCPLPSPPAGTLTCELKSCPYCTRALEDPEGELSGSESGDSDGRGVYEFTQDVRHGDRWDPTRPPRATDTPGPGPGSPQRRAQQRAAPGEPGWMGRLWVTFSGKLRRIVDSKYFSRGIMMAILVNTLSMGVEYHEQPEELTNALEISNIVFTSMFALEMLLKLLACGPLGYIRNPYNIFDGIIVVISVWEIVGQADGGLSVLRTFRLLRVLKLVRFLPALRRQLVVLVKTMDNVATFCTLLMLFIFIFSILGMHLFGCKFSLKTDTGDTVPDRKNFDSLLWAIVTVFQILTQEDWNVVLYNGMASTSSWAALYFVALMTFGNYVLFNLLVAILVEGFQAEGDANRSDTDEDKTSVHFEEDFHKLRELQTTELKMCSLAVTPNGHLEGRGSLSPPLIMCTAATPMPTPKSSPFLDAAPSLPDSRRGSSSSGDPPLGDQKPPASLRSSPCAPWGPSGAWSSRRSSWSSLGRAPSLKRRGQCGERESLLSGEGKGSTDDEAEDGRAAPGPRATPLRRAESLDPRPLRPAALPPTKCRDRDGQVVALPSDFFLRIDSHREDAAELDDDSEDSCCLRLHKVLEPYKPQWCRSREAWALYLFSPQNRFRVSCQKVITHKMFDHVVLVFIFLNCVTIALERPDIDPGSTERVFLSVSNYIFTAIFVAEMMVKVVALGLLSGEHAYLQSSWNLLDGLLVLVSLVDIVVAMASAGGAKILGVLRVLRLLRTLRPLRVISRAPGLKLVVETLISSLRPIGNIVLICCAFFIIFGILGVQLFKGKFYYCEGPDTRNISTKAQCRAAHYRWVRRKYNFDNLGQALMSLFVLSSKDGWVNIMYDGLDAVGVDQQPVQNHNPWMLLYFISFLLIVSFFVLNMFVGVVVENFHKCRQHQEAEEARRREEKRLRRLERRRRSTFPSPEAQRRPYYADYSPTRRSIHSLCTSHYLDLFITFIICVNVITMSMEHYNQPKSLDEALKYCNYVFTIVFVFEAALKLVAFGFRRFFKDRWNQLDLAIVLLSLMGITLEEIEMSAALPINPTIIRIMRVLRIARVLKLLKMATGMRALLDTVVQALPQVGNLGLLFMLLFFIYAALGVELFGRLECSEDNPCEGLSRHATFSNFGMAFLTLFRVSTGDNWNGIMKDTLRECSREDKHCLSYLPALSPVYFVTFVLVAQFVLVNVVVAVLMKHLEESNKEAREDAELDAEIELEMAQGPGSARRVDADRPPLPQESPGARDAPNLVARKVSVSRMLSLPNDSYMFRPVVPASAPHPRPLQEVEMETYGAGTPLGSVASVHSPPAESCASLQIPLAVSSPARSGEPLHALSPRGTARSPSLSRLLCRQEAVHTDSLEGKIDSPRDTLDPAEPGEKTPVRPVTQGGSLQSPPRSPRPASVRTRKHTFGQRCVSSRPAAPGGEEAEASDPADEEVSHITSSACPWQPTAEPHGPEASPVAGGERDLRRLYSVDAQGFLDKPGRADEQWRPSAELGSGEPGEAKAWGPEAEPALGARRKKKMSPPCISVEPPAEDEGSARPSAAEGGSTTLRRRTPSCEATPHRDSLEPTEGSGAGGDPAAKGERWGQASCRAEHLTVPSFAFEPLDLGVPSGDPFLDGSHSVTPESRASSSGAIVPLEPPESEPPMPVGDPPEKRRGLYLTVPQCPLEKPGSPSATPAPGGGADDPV

IC50 [nM]	SMILES
370	C[C@@H]1CN(c2ccc(CC(=O)N[C@@H]3CCN(c4cncc(C(F)(F)F)c4)C3)cc2)C[C@H](C)O1 [Example 86, 2-(4-((2R,6S)-2,6-dimethylmorpholino)phenyl)-N—((R)-1-(5-(trifluoromethyl)pyridin-3-yl)pyrrolidin-3-yl) acetamide]
5.4	O=C(Cc1ccc(N2CCCC2)cc1)N[C@@H]1CCN(c2cncc(C(F)(F)F)c2)C1 [Example 87, (R)-2-(4-(pyrrolidin-1-yl)phenyl)-N-(1-(5-(trifluoromethyl)pyridin-3-yl)pyrrolidin-3-yl)acetamide]
19	COCCN(C)c1ccc(CC(=O)N[C@@H]2CCN(c3cncc(C(F)(F)F)c3)C2)cc1 [Example 88, (R)-2-(4-((2-methoxyethyl)(methyl)amino)phenyl)-N-(1-(5-(trifluoromethyl)pyridin-3-yl)pyrrolidin-3-yl)acetamide]
430	O=C(Cc1ccc(C(F)(F)F)cc1)NC1CN(c2cncc(C(F)(F)F)c2)C1 [Example 89, 2-(4-(Trifluoromethyl)phenyl)-N-(1-(5-(trifluoromethyl)pyridin-3-yl)azetidin-3-yl)acetamide]
130	O=C(Cc1ccc2cc[nH]c2c1)NC1CN(c2cncc(C(F)(F)F)c2)C1 [Example 90, 2-(1H-indol-6-yl)-N-(1-(5-(trifluoromethyl)pyridin-3-yl)azetidin-3-yl)acetamide]
32	Cn1ccc2ccc(CC(=O)N[C@@H]3CCN(c4cncc(C(F)(F)F)c4)C3)cc21 [Example 91, (R)-2-(1-methyl-1H-indol-6-yl)-N-(1-(5-(trifluoromethyl)pyridin-3-yl)pyrrolidin-3-yl)acetamide]
72	Cn1ccc2ccc(CC(=O)N[C@@H]3CCN(c4ccc(C(F)(F)F)nc4)C3)cc21 [Example 92, (R)-2-(1-methyl-1H-indol-6-yl)-N-(1-(6-(trifluoromethyl)pyridin-3-yl)pyrrolidin-3-yl)acetamide]
340	CN1CCN(c2ccc(CC(=O)N[C@@H]3CCN(c4cncc(C(F)(F)F)c4)C3)cc2)CC1 [Example 93, (R)-2-(4-(4-methylpiperazin-1-yl)phenyl)-N-(1-(5-(trifluoromethyl)pyridin-3-yl)pyrrolidin-3-yl)acetamide]
910	O=C(Cc1ccc(N2CCNCC2)cc1)N[C@@H]1CCN(c2cncc(C(F)(F)F)c2)C1 [Example 94, (R)-2-(4-(piperazin-1-yl)phenyl)-N-(1-(5-(trifluoromethyl)pyridin-3-yl)pyrrolidin-3-yl)acetamide]
230	CC(=O)N1CCN(c2ccc(CC(=O)N[C@@H]3CCN(c4cncc(C(F)(F)F)c4)C3)cc2)CC1 [Example 95, (R)-2-(4-(4-acetylpiperazin-1-yl)phenyl)-N-(1-(5-(trifluoromethyl)pyridin-3-yl)pyrrolidin-3-yl)acetamide]
410	O=C(Cc1ccc(N2CCCCC2=O)cc1)N[C@@H]1CCN(c2cncc(C(F)(F)F)c2)C1 [Example 96, (R)-2-(4-(2-oxopiperidin-1-yl)phenyl)-N-(1-(5-(trifluoromethyl)pyridin-3-yl)pyrrolidin-3-yl)acetamide]
250	O=C(Cc1nc2ccc(Cl)cc2o1)N[C@@H]1CCN(c2cncc(C(F)(F)F)c2)C1 [Example 97, (R)-2-(6-chlorobenzo[d]oxazol-2-yl)-N-(1-(5-(trifluoromethyl)pyridin-3-yl)pyrrolidin-3-yl)acetamide]
1100	O=C(Cc1nc2ccccc2o1)N[C@@H]1CCN(c2cncc(C(F)(F)F)c2)C1 [Example 98, (R)-2-(benzo[d]oxazol-2-yl)-N-(1-(5-(trifluoromethyl)pyridin-3-yl)pyrrolidin-3-yl)acetamide]
100	O=C(Cc1ccc(N2CCC3(CC2)OCCO3)cc1)N[C@@H]1CCN(c2cncc(C(F)(F)F)c2)C1 [Example 101, (R)-2-(4-(1,4-dioxa-8-azaspiro[4.5]decan-8-yl)phenyl)-N-(1-(5-(trifluoromethyl)pyridin-3-yl)pyrrolidin-3-yl)acetamide]
150	O=C1CCN(c2ccc(CC(=O)N[C@@H]3CCN(c4cncc(C(F)(F)F)c4)C3)cc2)CC1 [Example 102, (R)-2-(4-(4-oxopiperidin-1-yl)phenyl)-N-(1-(5-(trifluoromethyl)pyridin-3-yl)pyrrolidin-3-yl)acetamide]
140	O=C(Cc1ccc(C2CC2)cc1)NC1(CO)CCN(c2cncc(C(F)(F)F)c2)C1 (centres unmarked) [Example 103, 2-(4-cyclopropylphenyl)-N-(3-(hydroxymethyl)-1-(5-(trifluoromethyl)pyridin-3-yl)pyrrolidin-3-yl)acetamide]
460	CC(=O)OCC1(NC(=O)Cc2ccc(C3CC3)cc2)CCN(c2cncc(C(F)(F)F)c2)C1 (centres unmarked) [Example 104, (3-(2-(4-cyclopropylphenyl)acetamido)-1-(5-(trifluoromethyl)pyridin-3-yl)pyrrolidin-3-yl)methyl acetate]
240	COCC1(NC(=O)Cc2ccc(C3CC3)cc2)CCN(c2cncc(C(F)(F)F)c2)C1 (centres unmarked) [Example 105, 2-(4-cyclopropylphenyl)-N-(3-(methoxymethyl)-1-(5-(trifluoromethyl)pyridin-3-yl)pyrrolidin-3-yl)acetamide]
240	CC(C)c1ccc(CC(=O)NC2CCN(c3cncc(C(F)(F)F)c3)CC2)cc1 [Example 109, 2-(4-Isopropylphenyl)-N-(1-(5-(trifluoromethyl)pyridin-3-yl)piperidin-4-yl)acetamide]
290	COc1ncc(N2CC[C@@H](NC(=O)Cc3ccc(C(C)C)cc3)C2)cc1C(F)(F)F [Example 110, (R)-2-(4-isopropylphenyl)-N-(1-(6-methoxy-5-(trifluoromethyl)pyridin-3-yl)pyrrolidin-3-yl)acetamide]
9900	CC(C)c1ccc(CC(=O)N[C@@H]2CCN(c3ncc(C(F)(F)F)cn3)C2)cc1 [Example 111, (R)-2-(4-isopropylphenyl)-N-(1-(5-(trifluoromethyl)pyrimidin-2-yl)pyrrolidin-3-yl)acetamide]
110	CC(C)c1ccc(CC(=O)N[C@@H]2CCN(c3nc(C(F)(F)F)cs3)C2)cc1 [Example 112, (R)-2-(4-isopropylphenyl)-N-(1-(4-(trifluoromethyl)thiazol-2-yl)pyrrolidin-3-yl)acetamide]
100	CC(C)c1ccc(CC(=O)N[C@@H]2CCN(c3ccc(C(F)(F)F)nc3)C2)cc1 [Example 113, (R)-2-(4-isopropylphenyl)-N-(1-(6-(trifluoromethyl)pyridin-3-yl)pyrrolidin-3-yl)acetamide]
1200	CC(C)c1ccc(CC(=O)N[C@H]2CCN(c3cncc(C(F)(F)F)c3)C2)cc1 [Example 114, (S)-2-(4-isopropylphenyl)-N-(1-(5-(trifluoromethyl)pyridin-3-yl)pyrrolidin-3-yl)acetamide]
91	O=C(Cc1ccc(OC(F)(F)F)cc1)N[C@@H]1CCN(c2cncc(C(F)(F)F)c2)C1 [Example 115, (R)-2-(4-(trifluoromethoxy)phenyl)-N-(1-(5-(trifluoromethyl)pyridin-3-yl)pyrrolidin-3-yl)acetamide]
40	O=C(Cc1ccc(OCC(F)(F)F)cc1)N[C@@H]1CCN(c2cncc(C(F)(F)F)c2)C1 [Example 116, (R)-2-(4-(2,2,2-trifluoroethoxy)phenyl)-N-(1-(5-(trifluoromethyl)pyridin-3-yl)pyrrolidin-3-yl)acetamide]
